Where two headings read alike, the source gives them in different places.
Tests used:
SMARCA2 [1] = molecular target: T1, SMARCA2 (Homo sapiens, UniProt P51531); assay: SMARCA2 degradation in HeLa cells (Western blot); format: cell-based; design: endogenous in cells; conditions: 4 hours
Procedure: (§1) Test Example 10 Degradation rate (%) of SMARCA2/4 by the PROTAC compounds of the present invention in HeLa cells and SW1573 cells
(§2) HeLa cells were seeded at 1.2 x 10^5 cells/well in a 6-well plate. 2 mL of EMEM medium supplemented with 10% FBS was added to each well and the culture dish was incubated overnight to allow the cells to adhere. The next day, 1 µL of 160 µM and 1 µL of 2 µM compound were added to the corresponding wells, resulting in final compound concentrations of 80 nM and 1 nM, respectively, and a final DMSO concentration of 0.05%. The cells were returned to the incubator and incubated for another 4 hours.
(§3) After 4 hours, cells were harvested, the culture medium was aspirated, and the cells were rinsed once with 1 mL/well PBS. The PBS was aspirated, and 40 µL/well of RIPA lysis buffer containing protease inhibitors was added. After lysis and centrifugation, total protein extracts were obtained, and protein concentration in the extracts was determined by BCA assay. Protein electrophoresis was performed by SDS-PAGE, followed by constant voltage electrophoresis at 100 V for 60 minutes and the protein was then transferred to a PVDF membrane. The PVDF membrane was blocked in 5% skim milk powder for 1 hour at room temperature. Primary antibodies (SMARCA2: CST#11966S, SMARCA4: CST#49360S, GAPDH: CST#5174S) were added and incubated overnight at 4°C. After washing the membrane, secondary antibodies were added and incubated at room temperature for 1 hour (protected from the light). After washing, the membrane was exposed using an Odyssey luminometer. Grayscale analysis of bands was performed using Image Studio software.
(§4) The degradation rate (%) of SMARCA2/4 by the PROTAC compounds of the present invention in HeLa cells and SW1573 cells is shown in Table 10. Table 10 Degradation rate of SMARCA2/4 by PROTAC compounds of the present invention in HeLa cells and SW1573 cells (%)

SMARCA2 [2] = molecular target: T1, SMARCA2; assay: SMARCA2 degradation in SW1573 cells (Western blot); format: cell-based; design: endogenous in cells; host or cells: SW1573; conditions: 24 hours
Procedure: as §1
as §2, with “SW1573” for “HeLa”, “2x10^5Cells/well” for “1.2 x 10^5 cells/well”, “and” for “and the culture dish”, “cell attachment.” for “the cells to adhere.”, “wells for treatment,” for “wells,”, “24” for “4”
as §3, with “After 24” for “After 4”, “the” for “the culture”
as §4

CRBN protein = CRBN protein (Homo sapiens, UniProt Q96SW2); assay: Binding activity to E3 ubiquitin ligase CRBN (HTRF competitive binding kit, Thalidomide-Red)
Description: Binding activity of the E3 ligase inhibitor disclosed in the present invention to E3 ubiquitin ligase CRBN
CRBN binding activity test kit (CEREBLON BINDING KITS (PE, 64BD CRBN PEG).
The detection is based on homogeneous time-resolved fluorescence (HTRF) technology.
This kit uses a europium-labeled GST antibody (GST Eu Cryptate Antibody) as the donor and XL665-labeled thalidomide (Thalidomide-Red reagent) as the receptor. The donor binds to the GST-tagged CRBN protein.
The donor and receptor were each diluted 50-fold using the buffer provided in the kit (PROTAC binding buffer 1). The CRBN protein was diluted 45-fold. An 8mM solution of the compound disclosed herein was diluted 10-fold using the diluent provided in the kit (1X diluent), followed by 7 successive 5-fold serial dilutions of the resulting solution.
The ratio of the acceptor and donor emission signals was calculated for each individual well.
IC50 values was calculated based on compound concentration, Ratio, and coefficient of variation using GraphPad Prism.

[3] = competition with XL665-labeled thalidomide for GST-tagged CRBN protein, HTRF, 3 hours at room temperature, read-out: IC50

Molecule	Degradation rate of SMARCA2 in HeLa cells (%) (SMARCA2 [1]; 1 nM)	Degradation rate of SMARCA2 in HeLa cells (%) (SMARCA2 [1]; 80 nM)	Degradation rate of SMARCA2 in SW1573 cells (%) (SMARCA2 [2]; 1 nM)	Degradation rate of SMARCA2 in SW1573 cells (%) (SMARCA2 [2]; 80 nM)	IC50 (CRBN protein; [3]) [µM]	IC50 (CRBN protein) [µM]
Nc1nnc(-c2ccccc2O)cc1C#CC1CCC2(CC1)CC(N1CCC3(CC1)COc1cc(F)c(C(=O)N[C@H]4CCC(=O)NC4=O)cc13)C2 (stereo partly drawn) [SM-P-21]	15	4	-12	14		
Cn1c(=O)n(C2CCC(=O)NC2=O)c2ccc3c(c21)OCC31CCN(C[C@H]2CC[C@H](Cn3cc(-c4cc(-c5ccccc5O)nnc4N)cn3)CC2)CC1 (stereo partly drawn) [SM-P-29, 3-(1'-(((1r,4r)-4-((4-(3-amino-6-(2-hydroxyphenyl)pyridazin-4-yl)-1H-pyrazol-1-yl)methyl)cyclohexyl)methyl)-1-methyl-2-oxo-1,2-dihydro-3H,7H-spiro[benzofuro[6,7-d]imidazole-6,4'-piperidin]-3-yl)piperidine-2,6-dione]	100	90	100	99		
Cn1c(=O)n(C2CCC(=O)NC2=O)c2cc3c(cc21)C1(CCN(C[C@H]2CC[C@H](n4cc(-c5cc(-c6ccccc6O)nnc5N)cn4)CC2)CC1)CO3 (stereo partly drawn) [SM-P-36]	99	97	100	98		
Cn1c(=O)n(C2CCC(=O)NC2=O)c2ccc3c(c21)OCC31CCN(C[C@H]2CC[C@H](n3cc(-c4cc(-c5ccccc5O)nnc4N)cn3)CC2)CC1 (stereo partly drawn) [SM-P-35]	100	99	100	100		
Cn1c(=O)n(C2CCC(=O)NC2=O)c2cc3c(cc21)C1(CCN(C2CC4(CCC(C#Cc5cc(-c6ccccc6O)nnc5N)CC4)C2)CC1)CO3 (stereo not drawn) [SM-P-4, 3-(1'-(7-((3-amino-6-(2-hydroxyphenyl)pyridazin-4-yl)ethynyl)spiro[3.5]nonan-2-yl)-1-methyl-2-oxo-1,2-dihydro-3H,6H-spiro[benzofuro[5,6-d]imidazole-7,4'-piperidin]-3-yl)piperidine-2,6-dione]	100	99	100	100		
Cn1c(=O)n(C2CCC(=O)NC2=O)c2cc3c(cc21)C1(CCN(C[C@H]2CC[C@H](Cn4cc(-c5cc(-c6ccccc6O)nnc5N)cn4)CC2)CC1)CO3 (stereo partly drawn) [SM-P-30, 3-(1'-(((1r,4r)-4-((4-(3-amino-6-(2-hydroxyphenyl)pyridazin-4-yl)-1H-pyrazol-1-yl)methyl)cyclohexyl)methyl)-1-methyl-2-oxo-1,2-dihydro-3H,6H-spiro[benzofuro[5,6-d]imidazole-7,4'-piperidin]-3-yl)piperidine-2,6-dione]	99	90	99	97		
Cn1c(=O)n(C2CCC(=O)NC2=O)c2cc3c(cc21)C1(CCN(C2CN(c4cc(-c5ccccc5O)nnc4N)C2)CC1)CO3 (stereo not drawn) [SM-P-38, 3-(1'-(1-(3-amino-6-(2-hydroxyphenyl)pyridazin-4-yl)azetidin-3-yl)-1-methyl-2-oxo-1,2-dihydro-3H,6H-spiro[benzofuro[5,6-d]imidazole-7,4'-piperidin]-3-yl)piperidine-2,6-dione]	-6	10	24	29		
Cn1c(=O)n(C2CCC(=O)NC2=O)c2ccc3c(c21)OCC31CCN(C2CC3(CCC(C#Cc4cc(-c5ccccc5O)nnc4N)CC3)C2)CC1 (stereo not drawn) [SM-P-26, 3-(1'-(7-((3-amino-6-(2-hydroxyphenyl)pyridazin-4-yl)ethynyl)spiro[3.5]nonan-2-yl)-1-methyl-2-oxo-1,2-dihydro-3H,7H-spiro[benzofuro[6,7-d]imidazole-6,4'-piperidin]-3-yl)piperidine-2,6-dione]	100	99	100	99		
Cn1c(=O)n(C2CCC(=O)NC2=O)c2ccc3c(c21)OCC31CCN(C2CN(c3cc(-c4ccccc4O)nnc3N)C2)CC1 (stereo not drawn) [SM-P-37, 3-(1'-(1-(3-amino-6-(2-hydroxyphenyl)pyridazin-4-yl)azetidin-3-yl)-1-methyl-2-oxo-1,2-dihydro-3H,7H-spiro[benzofuro[6,7-d]imidazole-6,4'-piperidin]-3-yl)piperidine-2,6-dione]	24	33				
O=C1CCC(Nc2ccc3c(c2)OC2(CCNCC2)C3)C(=O)N1 (stereo not drawn) [Compound C5, 3-((3H-spiro[benzofuran-2,4'-piperidine]-6-yl)amino)piperidine-2,6-dione]					5.45	
COc1cc2c(cc1C(=O)N[C@H]1CCC(=O)NC1=O)COC[C@H]1CNCCN21 [Compound B10, (R)-N-((S)-2,6-Dioxopiperidin-3-yl)-10-methoxy-1,2,3,4,4a,5-hexahydro-7H-benzo[e]pyrazino[2,1-c][1,4]oxacyclopropane-9-amide]						22.4
COc1cc2c(cc1C(=O)N[C@H]1CCC(=O)NC1=O)OCC[C@H]1CNCCN21 [Compound B9, (S)-N-((S)-2,6-Dioxopiperidin-3-yl)-10-methoxy-2,3,4,4a,5,6-hexahydro-1H-benzo[b]pyrazine[1,2-d][1,4]oxazepine-9-carboxamide]						13
COc1c(C(=O)N[C@H]2CCC(=O)NC2=O)ccc2c1OC[C@H]1CNCCN21 [Compound B6, (R)-N-((S)-2,6-Dioxyhesperidin-3-yl)-7-methoxy-1,2,3,4,4a,5-hexahydrobenzo[b]pyrazino[1,2-d][1,4]oxazine-8-carboxamide]						49.1
CN(c1ccc2c(c1)OCC21CCNCC1)C1CCC(=O)NC1=O (stereo not drawn) [Compound C15, 3-(Methyl(2H-spiro[benzofuran-3,4'-piperidine]-6-yl)amino)piperidine-2,6-dione]					0.72	
(R) -N-((S)-2,6-Dioxyhesperidin-3-yl)-9-methoxy-6-methyl-2,3,4,4a,5,6-hexahydro-1H-pyrazino[1,2-a]quinoline-8-carboxamide [Compound B12]					37.3	
O=C1CC[C@H](NC(=O)c2cc3c(cc2F)OC2(CCNCC2)CC3)C(=O)N1 [Compound A5, (S)-N-(2,6-dioxopiperidin-3-yl)-7-fluoro-spiro[2,4'-piperidine]-6-carboxamide]						20.8
COc1cc2c(cc1C(=O)N[C@H]1CCC(=O)NC1=O)OC[C@H]1CNCCN21 [Compound B4, (R)-N-((S)-2,6-Dioxyhesperidin-3-yl)-O-9-methoxy-1,2,3,4,4a,5-hexahydrobenzo[b]pyrazino[1,2-d][1,4]oxazine-8-carboxamide]						10.9

Source: patent EP4722219A1 (Gan & Lee Pharmaceuticals Co., Ltd., priority 2023, dated 2024)
